According to patent publication US20180263909A1, “DUAL LOADED LIPOSOMAL NANOPARTICLES” (priority 2015, published 2018):

Experiments:
[1] = test system: NCI-H929 cells; conditions: 25 nM of each drug, 48 h
Procedure: (§1) Cytotoxicity and Synergy Analysis. 2×10^5 cells/well were plated in a 96-well dish 16 h prior to the experiment. Cells were treated with respective cytotoxic agents at varying concentrations. Cytotoxicity was assessed at 48 h using Cell Counting Kit-8 Reagent (Dojindo Molecular Technologies, Rockville, Mass.).

[2] = test system: MM.1S cells; assay: Cytotoxicity (Cell Counting Kit-8) and Chou-Talalay synergy analysis, MM.1S; assay type: cell-based; conditions: 25 nM of each drug, 48 h
Procedure: as §1

Q: Which results are given for `CC(C)C[C@H](NC(=O)[C@H](CCc1ccccc1)NC(=O)CN1CCOCC1)C(=O)N[C@@H](Cc1ccccc1)C(=O)N[C@@H](CC(C)C)C(=O)[C@@]1(C)CO1` [carfilzomib]?
A: cytotoxicity [1]: minimal cytotoxicity; cytotoxicity [2]: minimal cytotoxicity
